From US7476383B2, “Antibody selective for DR4 and uses thereof” (The UAB Research Foundation, priority 2000, dated 2009)

B1: humanized TRA-8: humanized TRA-8, cotransfection of pHB14-1 and pSR/M2-1 (H2 type heavy chain, LM2 light chain) (antibody)
VH: EVMLVESGGGLVQPGGSLRLSCAASGFTFSSYVMSWVRQAPGKGLEWVATISSGGSYTYYPDSVKGRFTISRDNAKNTLYLQMNSLRAEDTAVYYCARRGDSMITTDYWGQGTLVTVSS
light: DIVMTQSPSSLSASVGDRVTITCKASQDVGTAVAWYQQKPGKAPKLLIYWASTRHTGVPSRFSGSGSGTDFTLTISSLQPEDFATYYCQQYSSYRTFGQGTKVEIKRTVAAPSVFIFPPSDEQLKSGTASVVCLLNNFYPREAKVQWKVDNALQSGNSQESVTEQDSKDSTYSLSSTLTLSKADYEKHKVYACEVTHQGLSSPVTKSFNRGEC

What was measured:
[1] = test system: Human prostate cancer cell line PC-3; experiment: Combination study with Paclitaxel, XTT; type: cell-based; conditions: 24 h
Protocol: Human prostate cancer cell line PC-3 is obtained from American Tissue Culture Collection (ATCC) and maintained in F-12K Nutrient Mixture (21127-022, Gibco BRL) containing 10% fetal bovine serum (FBS, Hyclone), 1% L-Glutamine-200 mM (25030-149, Gibco BRL) and 0.5% Penicillin Streptomycin Solution (P-7539, Sigma). RPMI1640 medium (MED-008, IWAKI) supplemented with 10% FBS and 0.5% Penicillin Streptomycin Solution is used in the following experiment. Exponentially growing PC-3 cells are collected by trypsinization and washed twice with fresh medium. The cells are then counted, resuspended in fresh medium at a density of 5×10^4 cells/ml and distributed in triplicate into flat-bottomed 96 well plates (3598, Coming-Coster) in a total volume of 100 μl/well one day before the start of the experiment. A representative anti-cancer drug, Paclitaxel (169-18611, Wako) dissolved in dimethylsulfoxide (10 mg/ml) is diluted in fresh medium and then added to the 96-well plates containing the cells at 50 μl/well. The final concentrations of dimethylsulfoxide are less than 0.1%. […] After incubation for a further 24 hr, 50 μl of Minimum Essential Medium (11095-098, Gibco BRL) containing 1 mg/ml of XTT and […] of PMS is added to the wells and the plates are incubated for 6 hr. OD450 is then measured by SPECTRA MAX 250 (Molecular Devices) and the cell viability is calculated as follows.

2LMP xenografts = experiment: TUNEL analysis of apoptosis in xenografts; type: in vivo, athymic nude mice; conditions: day 14; untreated 1%
Protocol: One group of mice was untreated. The xeno grafts were dissected for the study of apoptosis on day 14 after tumor cell injection. The reason for the substantial reduction in treatment intensity compared to our standard treatment protocol was to allow adequate tumor tissue for analysis on day 14. Tunel assay for apoptosis in tumor xenografts was performed as follows. Five-micron paraffin sections of tissue were mounted on Superfrost/Plus slides and heated at 58° C. for 1 h. Tissue sections were deparaffinized in three changes of xylene and rehydrated with one change of absolute ethanol, 95% ethanol, and 70% ethanol, each in 5-min increments. Then, the sections were placed in Tris-buffered saline (0.5M Tris base, 0.15 M NaCl, 0.0002% Triton X-100, pH 7.6). Apoptotic nuclei were detected using an Apop Tag Peroxidase kit (Intergen, Purchase, N.Y.). Proteinase K (20 μg/ml in distilled deionized H2O) was added to the tissue specimens and incubated at room temperature for 15 min. Endogenous peroxidases were quenched with an aqueous solution of 3% hydrogen peroxide for 5 min. […] Approximately 10 random fields were evaluated for percentage of Tunel stained and percentage of intensely stained apoptotic bodies throughout the tissue.

[2] = test system: 2LMP human breast cancer xenografts; experiment: 2LMP breast cancer xenografts in athymic nude mice; type: in vivo
Protocol: Nude mice were inoculated s.c. with the human breast cancer cell line, 2LMP. Treatment with i.p. doses of 200 μg of 2E12 occurred on days 7, 10, 14, 17, 21, and 24 after tumor cell injection. Animals received i.v. adriamycin (doxorubicin) (6 mg/kg) on days 8, 12, and 16.
Athymic nude mice were injected s.c. with 3×10^7 2LMP cells. […] The growth of tumors was monitored over time. […] Tumor size and regression rates were determined.
Data from 6 independent experiments were analyzed by individual experiment. Treatment combinations were compared with respect to in vivo anti-tumor efficacy, i.e., inhibition of tumor growth, which was measured as three endpoints; extension of tumor doubling times, percentage of tumor regressions, and growth rates over time. The actual number of days at which the tumor doubled in surface area (product of two diameters) relative to baseline on day 7 after tumor cell injection was used in the doubling time analysis. The nonparametric Kruskal-Wallis test was used for median tumor doubling time comparisons between treatments. Fisher's exact test was used to compare the proportions of tumor regressions and relapse-free regressions across treatment groups. To determine if any combination therapy produced significant synergistic inhibition of tumor growth, i.e., more than additive, the growth curves from the serial area measurements were compared using a linear mixed model approach over the first 3 weeks after start of therapy (Lindsey, J. K. Models for Repeated Measurements, pp. 100-142, Oxford, 1993). To test for synergistic effects of the combination therapies, an interaction term was included in the model. If the interaction term was significant and the effect was inhibition of growth at a rate greater than additive then the interaction was considered synergistic.
A total of 166 animals, 10 treatment groups, and 6 independent experiments were included in the aggregate analysis. Treatment combinations were compared with respect to in vivo anti-tumor efficacy. The median tumor doubling times were analyzed using the Kruskal-Wallis test and Fisher's exact test was used to compare the proportions of tumor regressions and relapse-free regressions across treatment groups.

Jurkat cells = experiment: Apoptosis-inducing activity of humanized antibody, XTT; type: cell-based, human; conditions: 12 hours
Protocol: Jurkat cells cultured in RPM11640 medium with 10% FCS (Gibco BRL) at 37° C. for 3 days in the presence of 5% CO2 are dispensed into each well of a 96-well microplate (Sumitomo Bakelite) at 50 μl per well. […] Each of the solutions of the expression products thus adjusted to 100 ng/ml is used to produce serial dilutions by repeating serial 2-fold dilution with RPM1640 containing 10% FCS. […] After reacting at 37° C. for 12 hours, 50 μl of 25 μM PMS (phenazine methosulfate; Sigma Chemical Co.) containing 1 mg/ml XTT (2,3-bis[2-methoxy-4-nitro-5-sulfophenyl]-2H-tetrazolium-5-carboxyaniride inner salt; Sigma Chemical Co.) is added (final concentrations of 250 μg/ml for XTT and 5 μM for PMS). After incubating for 3 hours, the absorbance at 450 nm of each well is measured to calculate the cell viability by using the reduction ability of mitochondria as the index.
The viability of the cells in each well is calculated according to the following formula: Viability (%)=100×(a−b)/(c−b) wherein “a” is the measurement of a test well, “b” is the measurement of a well with no cells, and “c” is the measurement of a well with no antibody added.
Jurkat cells cultured in RPMI1640 medium with 10% FCS (Gibco BRL) at 37° C. for 3 days in the presence of 5% CO2 are dispensed into each well of a 96-well microplate (Sumitomo Bakelite) at 50 μl per well. […]

[3] = aggregate, number of animals (%)

Molecule	viability at 0.0001 µg/mL [1] [%]	intense TUNEL stained cells (2LMP xenografts) [%]	Complete Regressions No relapse (%) [2, 3]	Complete Regressions Total (%) [2, 3]	complete regressions of tumor ([2]; individual experiments (FIG. 25-27), animals)	apoptosis-inducing activity (Jurkat cells)
CC(=O)O[C@H]1C(=O)[C@@]2(C)[C@H]([C@H](OC(=O)c3ccccc3)[C@]3(O)C[C@H](OC(=O)[C@H](O)[C@@H](NC(=O)c4ccccc4)c4ccccc4)C(C)=C1C3(C)C)[C@]1(OC(C)=O)CO[C@@H]1C[C@@H]2O [Paclitaxel]	> 40	2	0	0	none	
B1						induce apoptosis
